The record followed here is US10487054B2, “Therapeutic compounds” (REGENTS OF THE UNIVERSITY OF MINNESOTA, priority 2017, dated 2019).

For one series, the system named is SKH-1 hairless mice. Kind of series: SUV-induced mouse skin tumorigenesis, early-stage prevention model. Format: in vivo. The method, then:
Tumor volume was calculated according to the following formula: tumor volume (mm^3)=length×width×height×0.52. […] For 4B and 4C, data are represented as mean values±S.D. and significant differences were determined by one-way ANOVA. The asterisk (*) indicates a significant decrease compared to the SUV only or the vehicle and SUV-treated groups (***, p<0.001). […] Dorsal trunk skin samples were harvested and stained with H&E (left panels) or with an antibody to detect PCNA (right panels). […] Expression of PCNA was quantified using Image-Pro Plus software and stained cells were counted from 5 separate areas on each slide (lower panel). An average of 3 samples was calculated per group. Data are expressed as mean percent of control±S.D. and the asterisks indicate a significant difference in PCNA expression (***, p<0.001). […] The expression levels of phosphorylated and total proteins were analyzed by Western blot.
Mice were weighed once a week until the end of the study at week 28. […] SKH-1 hairless mice were treated as described in Materials and Methods. The mice in the control groups (n=9) received no vehicle/no SUV (n=3), vehicle/no SUV (n=3), or 1 mg […]/no SUV (n=3), respectively. The mice in the SUV treated group received SUV only (n=12) and the mice in the vehicle/SUV-treated group (n=12) were treated with oil-in-water emulsion cream before SUV exposure. The mice in the 0.1 mg/SUV or 1 mg/SUV groups (n=12 each) received treatment with compound 1 (0.1 or 1 mg, respectively) before SUV exposure. The frequency of irradiation was set at 3 times a week for 15 weeks. The respective doses of oil-in-water emulsion cream or compound 1 were applied topically to the dorsal area. Tumor incidence and multiplicity were recorded weekly until the end of the experiment at week 28.
Female SKH-1 hairless mice were purchased from Charles River and were acclimated for 2 weeks before the study and had free access to food and water. All animals were maintained according to the guidelines approved by the University of Minnesota Institutional Animal Care and Use Committee (IACUC). The animals were housed in climate-controlled quarters with a 12-h light/dark cycle. The skin carcinogenesis experiments were conducted using 6-8 wk old mice with a mean body weight of 25 g. Skin carcinogenesis was induced by a solar simulated ultraviolet irradiation system. The SUV irradiation source (Q-Lab Corporation, Westlake, Ohio) emitted at wavelengths of 295 to 365 nm and the peak emission was 340 nm.
The two mouse models included an early-stage prevention model and a late-stage prevention model. These models were designed for detecting either the respective chemopreventive effect or the potential therapeutic value of compound 1 against SUV-induced skin damage and carcinogenesis. For the early-stage prevention study, SKH-1 mice were divided into 7 groups and an oil-in-water emulsion cream was applied topically as the vehicle with or without compound 1. The three control groups included 1) mice (n=3) not treated with vehicle or SUV; 2) mice (n=3) treated with vehicle but no SUV; and 3) mice (n=3) treated with 1 mg compound 1 in vehicle but not exposed to SUV. Experimental groups included 1) mice (n=12) treated with SUV only; 2) mice (n=12) treated with vehicle followed by SUV 1 h later; 3) mice (n=12 each group) treated with topical application of 0.1 or 1 mg of compound 1 in vehicle 1 h before SUV irradiation. The topical applications and SUV treatment were applied 3 times a week for a total of 15 weeks. At 15 weeks, SUV irradiation was discontinued and topical applications continued with tumor growth monitoring for an additional 13 weeks until week 28 at which time mice were euthanized and tissues harvested.
At week 1, mice were irradiated with SUV at a dose of 36 kJ/m^2 UVA and 1.8 kJ/m^2 UVB. At week 6, the dose of SUV reached 60 kJ/m^2 UVA and 2.9 kJ/m^2 UVB and this dose was maintained from week 6 to week 15. […]

A further series deals with SCC12 cells. Kind of series: Western blot of TOPK downstream signaling. It counts as cell-based, human. The method, then: (§1) The cells were cultured, treated for 4 h with different concentrations of compound 1 and then exposed to SUV (60 kJ UVA/m^2 and 2.9 kJ UVB/m^2), followed by an additional 15-minute incubation. Cells were harvested and the levels of phosphorylated and total proteins were determined by Western blot analysis with specific antibodies as indicated. […] The cells were cultured and treated with different concentrations of compound 1 for 24 h. Cells were harvested and the levels of phosphorylated and total proteins were determined by Western blot analysis with specific antibodies as indicated. […] For the luciferase assay, JB6 P+ cells stably transfected with an AP-1 luciferase reporter plasmid were cultured. After starvation for 24 h, cells were treated for 1 h with compound 1 (0, 1.25, 2.5, or 5 μM). Cells were then exposed to SUV (60 kJ UVA/m^2 and 2.9 kJ UVB/m^2) and harvested 3 h later. Luciferase activity was measured and AP-1 activity is expressed relative to control cells without SUV treatment. […] Knockdown of TOPK in A431 cell line (left). Stable control or TOPK knockdown cells were co-transfected with 100 ng of the AP-1 luciferase reporter plasmid and 50 ng of internal control […] plasmid. Cells were transfected using iMFectin poly DNA transfection reagent (GenDEPOT) according to the manufacturer's instructions. After 12 h of transfection, cells were incubated with the different concentrations of compound 1 for another 24 h. Luciferase and […] activities were measured using reagents included in the reporter assay system (right). Data are shown as mean values±S.D obtained from triplicate experiments. Significant differences were evaluated using one-way ANOVA and the asterisks (*) indicate a significant effect (*, p<0.05; **, p<0.001; ***, p<0.0001).
(§2) HaCaT or JB6 P+ cells (1×10^6) were cultured in 10-cm dishes for 24 h and then the medium was replaced with 0.1% FBS medium for 24 h. Cells were then treated with different concentrations of compound 1 for 4 h followed by exposure to SUV (60 kJ UVA/m^2 and 2.9 kJ UVB/m^2). After SUV, cells were incubated for 15 min at 37° C. in a 5% CO2 humidified incubator. SCC12 and A431 cells (1.5×10^6) were cultured in 10-cm dishes overnight and then starved for 24 h. Cells were then treated with different concentrations of compound 1 for an additional 24 h. Protein concentration in cell lysates was determined using a protein assay kit (Bio-Rad Laboratories, Hercules, Calif.). Equal amounts of proteins were resolved by SDS-PAGE and then transferred onto polyvinylidene difluoride (PVDF) membranes (EMD Millipore Corp., Billerica, Mass.) and membranes were blocked with 5% nonfat milk for 1 h at room temperature. […]
In general terms: In western blotting, separated proteins are transferred to a membrane and probed.

A further series has as its system A431 cells. Kind of series: Western blot of TOPK downstream signaling. Format: cell-based, human. The method, then: as §1, §2

In the case of `O=C1Nc2ccc(C34CC5CC(CC(C5)C3)C4)cc2C1=NO` [compound 1, 5-(adamantan-1-yl)-3-(hydroxyimino)indolin-2-one], the SUV-induced tumor volume entry with SKH-1 hairless mice (early-stage model (FIG. 4B)) is given as “suppresses”. Further, the SUV-induced epidermal thickness result with SKH-1 hairless mice (early-stage model, 0.1 or 1 mg, H&E) is listed as “decreased”. Besides, in the series on SKH-1 hairless mice (early-stage model, Western blot), the “SUV-induced phosphorylation of ERK1/2, p38, and JNKs in mouse skin” value is reported as “dramatically suppressed”. Moreover, the “expression of PCNA” value with SKH-1 hairless mice (early-stage model, immunohistochemistry of skin) is “decreased”. Moreover, the “average number of SUV-induced tumors” value with SKH-1 hairless mice (early-stage model, week 28 (FIG. 4C)) is “suppresses”. In the series on SKH-1 hairless mice (early-stage prevention group, topical 0.1 or 1 mg), the SUV-induced papilloma formation result is listed as “total inhibition”. The body weight entry in the series on SKH-1 hairless mice (topical application on dorsal skin, early-stage model, to week 28) was “no effect on body weight”. For the same compound, the “phosphorylated c-Jun protein levels” value with SCC12 cells and in the series with A431 cells was “blocked dose-dependently” throughout. For the same compound, the “phosphorylation of ERK1/2, p38, and JNKs” value is on record as “blocked” with SCC12 cells (24 h, dose-dependently) and “blocked” in the series with A431 cells (24 h, dose-dependently).
